According to patent publication US10975068B2, “6-aminopyridin-3-yl thiazoles as modulators of RORγT” (Janssen Pharmaceutica NV, priority 2016, dated 2021):

Key:
[1] = target: human RORγt ligand binding domain (RORγt LBD) (Homo sapiens (Human), UniProt P51449); test: RORγt ThermoFluor® assay (thermal shift binding); settings: read-out: ThermoFluor® Assay, Kd
Procedure, shortened: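 Binding was inferred from thermal stabilisation (ΔTm) of the E. coli-expressed RORγt LBD (0.065 mg/mL), monitored by 1,8-ANS (60 μM) emission at 500 nm during a 1 °C/min ramp. Buffer was Hepes 100 mM pH 7.0 with NaCl, GSH and Tween-20.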

full-length human RORγt = full-length human RORγt (Homo sapiens (Human), UniProt P51449); test: RORγt (full-length human) reporter assay, Conditions B or C; format: cell-based; settings: for inhibition at 3 µM: at 3 μM compound concentration; for IC50: read-out: RORγt (FL) Reporter Assay B or C, IC50
Procedure, shortened: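 Readout is dual luciferase: firefly (GAL4-driven) normalized to DMSO-only and saturating-reference controls, then to CMV-Renilla. Full-length human RORγt fused to GAL4-DBD was transiently expressed in HEK293T; compound exposure ran overnight (16-20 h) starting 4-6 h after transfection, final FBS 1.3%, DMSO 0.1%.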

[2] = read-out: RORγt (FL) Reporter Assay B or C, % inhibition

Sequence of full-length human RORγt (P51449 other isoform, or with tags, fused parts or gaps): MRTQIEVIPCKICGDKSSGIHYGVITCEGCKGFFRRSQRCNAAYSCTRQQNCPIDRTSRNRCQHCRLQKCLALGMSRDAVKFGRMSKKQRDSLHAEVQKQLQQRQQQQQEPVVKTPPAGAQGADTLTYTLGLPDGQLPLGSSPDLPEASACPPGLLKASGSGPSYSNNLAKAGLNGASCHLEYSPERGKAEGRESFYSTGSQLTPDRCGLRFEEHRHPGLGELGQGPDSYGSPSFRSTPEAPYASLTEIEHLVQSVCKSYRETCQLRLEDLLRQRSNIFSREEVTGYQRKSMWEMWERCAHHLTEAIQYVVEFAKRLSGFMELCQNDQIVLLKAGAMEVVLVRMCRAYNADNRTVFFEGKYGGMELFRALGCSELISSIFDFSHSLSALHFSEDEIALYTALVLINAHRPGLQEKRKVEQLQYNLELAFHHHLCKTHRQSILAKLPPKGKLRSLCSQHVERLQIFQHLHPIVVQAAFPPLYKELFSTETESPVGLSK
Sequence of human RORγt ligand binding domain (RORγt LBD) (P51449 other isoform, or with tags, fused parts or gaps): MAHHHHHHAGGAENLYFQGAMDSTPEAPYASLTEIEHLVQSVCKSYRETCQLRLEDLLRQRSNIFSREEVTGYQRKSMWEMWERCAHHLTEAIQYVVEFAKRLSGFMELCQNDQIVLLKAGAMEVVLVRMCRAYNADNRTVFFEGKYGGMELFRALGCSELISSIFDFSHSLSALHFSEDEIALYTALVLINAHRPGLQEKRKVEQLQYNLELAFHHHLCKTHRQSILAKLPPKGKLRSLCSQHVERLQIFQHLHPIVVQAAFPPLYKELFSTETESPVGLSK

| Kd [1] [nM] | inhibition at 3 µM (full-length human RORγt; [2]) [%] | IC50 (full-length human RORγt) [nM] | inhibition at 1 µM (full-length human RORγt; at 1 μM compound concentration, read-out: RORγt (FL) Reporter Assay B or C, % inhibition) [%] | Structure (SMILES) |
| --- | --- | --- | --- | --- |
| 3.3 | 102 | 47 |  | CC[C@H](Nc1cc(C(F)F)c(-c2sc(C(=O)N[C@H](C)C(C)(C)O)nc2C(=O)N2CCC[C@@H]2C)cn1)C(F)(F)F [Example 267, 5-[4-(Difluoromethyl)-6-[[(1S)-1-(trifluoromethyl)propyl]amino]-3-pyridyl]-N-[(1R)-2-hydroxy-1,2-dimethyl-propyl]-4-[(2S)-2-methylpyrrolidine-1-carbonyl]thiazole-2-carboxamide] |
| 4.9 | 101 | 8.2 |  | C[C@H]1CCCN1C(=O)c1nc(C(=O)N[C@H](C)C(C)(C)O)sc1-c1cnc(NC(C)(C)C)cc1C(F)F [Example 269, 5-[6-(tert-Butylamino)-4-(difluoromethyl)-3-pyridyl]-N-[(1R)-2-hydroxy-1,2-dimethyl-propyl]-4-[(2S)-2-methylpyrrolidine-1-carbonyl]thiazole-2-carboxamide] |
| 3.5 | 102 | 5.1 |  | C[C@H](NC(=O)c1nc(C(=O)N2CCC[C@@H]2C)c(-c2cnc(NC(C)(C)C)cc2C(F)F)s1)C(C)(C)O [Example 270, 5-[6-(tert-Butylamino)-4-(difluoromethyl)-3-pyridyl]-N-[(1S)-2-hydroxy-1,2-dimethyl-propyl]-4-[(2S)-2-methylpyrrolidine-1-carbonyl]thiazole-2-carboxamide] |
| 0.51 | 102 | 5.2 |  | C[C@H]1CC(F)(F)CN1C(=O)c1nc(C(=O)NCC(C)(C)O)sc1-c1cnc(NCC2(C(F)(F)F)CCC2)cc1C(F)F [Example 273, 4-[(2S)-4,4-Difluoro-2-methyl-pyrrolidine-1-carbonyl]-5-[4-(difluoromethyl)-6-[[1-(trifluoromethyl)cyclobutyl]methylamino]-3-pyridyl]-N-(2-hydroxy-2-methyl-propyl)thiazole-2-carboxamide] |
| 2 | 99 | 14 |  | C[C@H]1CC(F)(F)CN1C(=O)c1nc(C(=O)NCC(C)(C)O)sc1-c1cnc(NCC2(C(F)(F)F)CC2)cc1C(F)F [Example 275, 4-[(2S)-4,4-Difluoro-2-methyl-pyrrolidine-1-carbonyl]-5-[4-(difluoromethyl)-6-[[1-(trifluoromethyl)cyclopropyl]methylamino]-3-pyridyl]-N-(2-hydroxy-2-methyl-propyl)thiazole-2-carboxamide] |
| 6.1 |  | 16 | 118 | C[C@H]1CCCN1C(=O)c1nc(C(=O)NCC(C)(C)O)sc1-c1cnc(NCC2(C(F)(F)F)CC2)cc1C(F)F [Example 276, 5-[4-(Difluoromethyl)-6-[[1-(trifluoromethyl)cyclopropyl]methylamino]-3-pyridyl]-N-(2-hydroxy-2-methyl-propyl)-4-[(2S)-2-methylpyrrolidine-1-carbonyl]thiazole-2-carboxamide] |
| 7.4 | 100 | 40 |  | C[C@H]1CCCN1C(=O)c1nc(C(=O)NCC(C)(C)O)sc1-c1cnc(NCC2(C)CC2)cc1C(F)(F)F [Example 278, N-(2-Hydroxy-2-methyl-propyl)-5-[6-[(1-methylcyclopropyl)methylamino]-4-(trifluoromethyl)-3-pyridyl]-4-[(2S)-2-methylpyrrolidine-1-carbonyl]thiazole-2-carboxamide] |
| 1.4 | 109 | 19 |  | CC[C@@H](Nc1cc(C(F)(F)F)c(-c2sc(C(=O)NCC(C)(C)O)nc2C(=O)N2CCC[C@@H]2C)cn1)C(F)(F)F [Example 282, N-(2-Hydroxy-2-methyl-propyl)-4-[(2S)-2-methylpyrrolidine-1-carbonyl]-5-[4-(trifluoromethyl)-6-[[(1R)-1-(trifluoromethyl)propyl]amino]-3-pyridyl]thiazole-2-carboxamide] |
| 2.9 | 104 | 64 |  | C[C@H](Nc1cc(C(F)F)c(-c2sc(C(=O)N[C@H]3CCC[C@@H]3O)nc2C(=O)N2CCC[C@@H]2C)cn1)C(F)(F)F [Example 285, 5-(4-(Difluoromethyl)-6-(((S)-1,1,1-trifluoropropan-2-yl)amino)pyridin-3-yl)-N-((1S,2S)-2-hydroxycyclopentyl)-4-((S)-2-methylpyrrolidine-1-carbonyl)thiazole-2-carboxamide] |
| 4.3 | 109 | 34 |  | C[C@H](Nc1cc(C(F)F)c(-c2sc(C(=O)NC3CCOCC3)nc2C(=O)N2CCC[C@@H]2C)cn1)C(F)(F)F [Example 287, 5-(4-(Difluoromethyl)-6-(((S)-1,1,1-trifluoropropan-2-yl)amino)pyridin-3-yl)-4-((S)-2-methylpyrrolidine-1-carbonyl)-N-(tetrahydro-2H-pyran-4-yl)thiazole-2-carboxamide] |
| 3.8 | 99 | 69 |  | C[C@H](Nc1cc(C(F)F)c(-c2sc(C(=O)N[C@@H]3CC[C@@H](O)C3)nc2C(=O)N2CCC[C@@H]2C)cn1)C(F)(F)F [Example 289, 5-(4-(Difluoromethyl)-6-(((S)-1,1,1-trifluoropropan-2-yl)amino)pyridin-3-yl)-N-((1R,3R)-3-hydroxycyclopentyl)-4-((S)-2-methylpyrrolidine-1-carbonyl)thiazole-2-carboxamide] |

Continued, compound first:

| Structure (SMILES) | Kd [1] [nM] | inhibition at 3 µM (full-length human RORγt; [2]) [%] | IC50 (full-length human RORγt) [nM] | inhibition at 1 µM (full-length human RORγt; at 1 μM compound concentration, read-out: RORγt (FL) Reporter Assay B or C, % inhibition) [%] |
| --- | --- | --- | --- | --- |
| C[C@H]1CCCN1C(=O)c1nc(C(=O)N2CC(C)(O)C2)sc1-c1cnc(NC(C)(C)C)cc1C(F)(F)F [Example 268, [5-[6-(tert-Butylamino)-4-(trifluoromethyl)-3-pyridyl]-2-(3-hydroxy-3-methyl-azetidine-1-carbonyl)thiazol-4-yl]-[(2S)-2-methylpyrrolidin-1-yl]methanone] | 2.4 | 109 | 110 |  |
| C[C@H]1CCCN1C(=O)c1nc(C(=O)NCC(O)(C(F)(F)F)C(F)(F)F)sc1-c1cnc(NC(C)(C)C)cc1C(F)(F)F [Example 271, 5-[6-(tert-Butylamino)-4-(trifluoromethyl)-3-pyridyl]-4-[(2S)-2-methylpyrrolidine-1-carbonyl]-N-[3,3,3-trifluoro-2-hydroxy-2-(trifluoromethyl)propyl]thiazole-2-carboxamide] | 4 | 106 | 5.7 |  |
| CC[C@H](Nc1cc(C(F)F)c(-c2sc(C(=O)N[C@@H](C)C(C)(C)O)nc2C(=O)N2CCC[C@@H]2C)cn1)C(F)(F)F [Example 272, 5-[4-(Difluoromethyl)-6-[[(1S)-1-(trifluoromethyl)propyl]amino]-3-pyridyl]-N-[(1S)-2-hydroxy-1,2-dimethyl-propyl]-4-[(2S)-2-methylpyrrolidine-1-carbonyl]thiazole-2-carboxamide] | 2.1 | 105 | 18 |  |
| C[C@H]1CCCN1C(=O)c1nc(C(=O)NCC(C)(C)O)sc1-c1cnc(NCC2(C(F)(F)F)CCC2)cc1C(F)F [Example 274, 5-[4-(Difluoromethyl)-6-[[1-(trifluoromethyl)cyclobutyl]methylamino]-3-pyridyl]-N-(2-hydroxy-2-methyl-propyl)-4-[(2S)-2-methylpyrrolidine-1-carbonyl]thiazole-2-carboxamide] | 0.97 | 96 | 36 |  |
| C[C@H]1CC(F)(F)CN1C(=O)c1nc(C(=O)NCC(C)(C)O)sc1-c1cnc(NCC2(C)CC2)cc1C(F)(F)F [Example 277, 4-[(2S)-4,4-Difluoro-2-methyl-pyrrolidine-1-carbonyl]-N-(2-hydroxy-2-methyl-propyl)-5-[6-[(1-methylcyclopropyl)methylamino]-4-(trifluoromethyl)-3-pyridyl]thiazole-2-carboxamide] | 2.4 | 113 | 11 |  |
| C[C@H](Nc1cc(C(F)F)c(-c2sc(C(=O)N[C@@H]3CCC[C@H]3O)nc2C(=O)N2CCC[C@@H]2C)cn1)C(F)(F)F [Example 283, 5-(4-(Difluoromethyl)-6-(((S)-1,1,1-trifluoropropan-2-yl)amino)pyridin-3-yl)-N-((1R,2R)-2-hydroxycyclopentyl)-4-((S)-2-methylpyrrolidine-1-carbonyl)thiazole-2-carboxamide] | 1.9 | 106 | 54 |  |
| C[C@H](CO)NC(=O)c1nc(C(=O)N2CCC[C@@H]2C)c(-c2cnc(N[C@@H](C)C(F)(F)F)cc2C(F)F)s1 [Example 284, 5-(4-(Difluoromethyl)-6-(((S)-1,1,1-trifluoropropan-2-yl)amino)pyridin-3-yl)-N—((R)-1-hydroxypropan-2-yl)-4-((S)-2-methylpyrrolidine-1-carbonyl)thiazole-2-carboxamide] | 8.1 | 111 | 110 |  |
| C[C@H](Nc1cc(C(F)F)c(-c2sc(C(=O)N[C@H]3CC[C@H](O)C3)nc2C(=O)N2CCC[C@@H]2C)cn1)C(F)(F)F [Example 288, 5-(4-(Difluoromethyl)-6-(((S)-1,1,1-trifluoropropan-2-yl)amino)pyridin-3-yl)-N-((1S,3S)-3-hydroxycyclopentyl)-4-((S)-2-methylpyrrolidine-1-carbonyl)thiazole-2-carboxamide] | 4.4 | 103 | 29 |  |
